These results are taken from patent US8378107B2, “Heteroaryl antagonists of prostaglandin D2 receptors” (Panmira Pharmaceuticals, LLC, priority 2008, dated 2013).

This experiment concerns the target T1, human DP2 receptor (Homo sapiens, UniProt Q9Y5Y4).
T1 construct: expressed in transfected cells; membrane preparation
T1 sequence (Q9Y5Y4 1-395): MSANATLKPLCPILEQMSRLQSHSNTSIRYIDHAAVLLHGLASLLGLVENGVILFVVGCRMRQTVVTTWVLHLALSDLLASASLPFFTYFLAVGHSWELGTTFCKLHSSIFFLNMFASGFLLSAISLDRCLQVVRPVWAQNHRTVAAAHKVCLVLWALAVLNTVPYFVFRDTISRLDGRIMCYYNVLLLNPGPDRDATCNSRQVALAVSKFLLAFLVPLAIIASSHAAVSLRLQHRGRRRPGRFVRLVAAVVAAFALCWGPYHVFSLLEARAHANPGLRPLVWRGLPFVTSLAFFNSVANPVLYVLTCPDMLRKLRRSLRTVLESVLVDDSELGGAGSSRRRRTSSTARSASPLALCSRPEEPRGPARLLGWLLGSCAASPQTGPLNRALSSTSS
As to the kind of experiment: DP2/CRTH2 radioligand binding assay using [3H]PGD2. Conditions: membranes of HEK293 cells expressing recombinant human DP2, 1 nM [3H]PGD2; read-out: hDP2. The method, then: The ability of a compound to bind to the human DP2 receptor is assessed via a radioligand binding assay using [^3H]PGD2. HEK293 cells stably expressing recombinant human DP2 are resuspended in 10 mM Hepes, 7.4 containing 1 mM DTT, lysed and centrifuged at 75,000×g to pellet the membranes. The membranes are resuspended in 10 mM Hepes, 7.4 containing 1 mM DTT and 10% glycerol to approximately 5 mg protein/ml. Membranes (2-10 μg protein/well) are incubated in 96-well plates with 1 nM [^3H]PGD2 and test compound in Assay Buffer (50 mM Hepes, 10 mM MnCl2, 1 mM EDTA, plus or minus 0.2% human serum albumin, pH 7.4) for 60 minutes at room temperature. The reactions are terminated by rapid filtration through Whatman GF/C glass fibre filter plates. The filter plates were pre-soaked in 0.33% polyethylenimine for 30 minutes at room temperature then washed in Wash Buffer (50 mM Hepes, 0.5 M NaCl pH 7.4) prior to harvesting. After harvesting, the filter plates are washed 3 times with 1 ml cold Wash Buffer then dried. Scintillant is then added to the plates and the radioactivity retained on the filters is determined on a Packard TopCount (Perkin Elmer). Specific binding is determined as total radioactive binding minus non-specific binding in the presence of 10 μM PGD2. IC50s were determined using GraphPad prism analysis of drug titration curves.

For `COc1ccc(CC(=O)O)cc1-c1ncccc1CNC(=O)OCc1ccccc1` [Compound 1-1, {3-[3-(Benzyloxycarbonylamino-methyl)-pyridin-2-yl]-4-methoxy-phenyl}-acetic acid], the IC50 was above 1 µM.

As for `CCN(Cc1cc(C)cnc1-c1cc(CC(=O)O)ccc1OC)C(=O)C1CC1` [Compound 1-2, (3-{3-[(Cyclopropanecarbonyl-ethyl-amino)-methyl]-5-methyl-pyridin-2-yl}-4-methoxy-phenyl)-acetic acid], the IC50 was 0.3 to 1 µM.

On to `CCN(Cc1cc(C)cnc1-c1cc(CC(=O)O)ccc1OC)C(=O)CCc1ccccc1` [Compound 1-3, [3-(3-{[Ethyl-(3-phenyl-propionyl)-amino]-methyl}-5-methyl-pyridin-2-yl)-4-methoxy-phenyl]-acetic acid], for which the IC50 is below 0.3 µM.

In the case of `CCN(Cc1cc(C)cnc1-c1cc(CC(=O)O)ccc1OC)C(=O)NCc1ccccc1` [Compound 1-4, {3-[3-(3-Benzyl-1-ethyl-ureidomethyl)-5-methyl-pyridin-2-yl]-4-methoxy-phenyl}-acetic acid], the IC50 was below 0.3 µM.

Take `CCN(Cc1cc2ccccc2nc1-c1cc(CC(=O)O)ccc1OC)C(=O)C1CC1` [Compound 2-1, (3-{3-[(Cyclopropanecarbonyl-ethyl-amino)-methyl]-quinolin-2-yl}-4-methoxy-phenyl)-acetic acid]: the IC50 lay within 0.3 to 1 µM.

`CCN(Cc1cc2ccccc2nc1-c1cc(CC(=O)O)ccc1OC)C(C)=O` [Compound 2-2, (3-{3-[(Acetyl-ethyl-amino)-methyl]-quinolin-2-yl}-4-methoxy-phenyl)-acetic acid]: the IC50 is above 1 µM.

With `CCN(Cc1cc2ccccc2nc1-c1cc(CC(=O)O)ccc1OC)C(=O)COC` [Compound 2-3, [3-(3-{[Ethyl-(2-methoxy-acetyl)-amino]-methyl}-quinolin-2-yl)-4-methoxy-phenyl]-acetic acid], the IC50 is above 1 µM.

For `CCN(Cc1nc2ccccc2cc1-c1cc(CC(=O)O)ccc1OC)C(=O)C1CC1` [Compound 2-4, (3-{2-[(Cyclopropanecarbonyl-ethyl-amino)-methyl]-quinolin-3-yl}-4-methoxy-phenyl)-acetic acid], the IC50 is below 0.3 µM.

For the compound `CCC(=O)N(CC)Cc1nc2ccccc2cc1-c1cc(CC(=O)O)ccc1OC` [Compound 2-5, (3-{2-[(Ethyl-propionyl-amino)-methyl]-quinolin-3-yl}-4-methoxy-phenyl)-acetic acid], the IC50 was below 0.3 µM.

Turning to `CCN(Cc1nc2ccccc2cc1-c1cc(CC(=O)O)ccc1OC)C(=O)COC` [Compound 2-6, [3-(2-{[Ethyl-(2-methoxy-acetyl)-amino]-methyl}-quinolin-3-yl)-4-methoxy-phenyl]-acetic acid], the IC50 is below 0.3 µM.

As for `COc1ccc(CC(=O)O)cc1-c1cc2ccccc2nc1CN(Cc1ccccc1)C(C)=O` [Compound 2-7, (3-{2-[(Acetyl-benzyl-amino)-methyl]-quinolin-3-yl}-4-methoxy-phenyl)-acetic acid], the IC50 is below 0.3 µM.

As for `COc1ccc(CC(=O)O)cc1-c1cc2ccccc2nc1CN(Cc1ccccc1)C(=O)C1CC1` [Compound 2-8, (3-{2-[(Benzyl-cyclopropanecarbonyl-amino)-methyl]-quinolin-3-yl}-4-methoxy-phenyl)-acetic acid], the IC50 is below 0.3 µM.

With `O=C(O)CCn1c2c(c3ccccc31)C[C@H](NS(=O)(=O)c1ccc(F)cc1)CC2` [Ramatroban, reference compound], the IC50 fell in the range of 0.3 to 1 µM.
